Assay results published in ChEMBL document CHEMBL1133204, “Synthesis and biological activities of an alpha-methyl and a beta-methyl carbapenem and the corresponding unsubstituted compound” (Bioorg Med Chem Lett, 2000).

Experiments:
[1] = Half life of hydrolysis of compound at pH 7.4, 37 degree C; format: ADME; details: buffer
Beta-lactamase = Beta-lactamase (Enterobacter cloacae, UniProt P05364); assay: Beta-Lactamase inhibition activity after 15 min of pre-incubation with the enzyme isolated from Enterobacter cloacae
Beta-lactamase TEM = Beta-lactamase TEM (Escherichia coli, UniProt P62593); assay: Beta-Lactamase inhibition activity after 15 min of pre-incubation with the enzyme isolated from Escherichia coli 205 TEM
Enterococcus sp. = assay: Minimum inhibitory concentration against Enterobacter coccus in DIFCO nutrient agar after 18 hr incubation period at 37 degree C; format: functional
Escherichia coli [2] = assay: Minimum inhibitory concentration against Escherichia coli 1103 in DIFCO nutrient agar after 18 hr incubation period at 37 degree C; format: functional
Escherichia coli [3] = assay: Minimum inhibitory concentration against Escherichia coli 205 TEM in DIFCO nutrient agar after 18 hr incubation period at 37 degree C; format: functional
Enterobacter cloacae = assay: Minimum inhibitory concentration against Enterobacter cloacae in DIFCO nutrient agar after 18 h incubation period at 37 degree C; format: functional
Pseudomonas aeruginosa [4] = assay: Minimum inhibitory concentration against Pseudomonas aeruginosa in DIFCO nutrient agar after 18 hr incubation period at 37 degree C; format: functional
Pseudomonas aeruginosa [5] = assay: Minimum inhibitory concentration against Pseudomonas aeruginosa. res in DIFCO nutrient agar after 18 hr incubation period at 37 degree C; format: functional
Staphylococcus aureus [6] = assay: Minimum inhibitory concentration against Staphylococcus aureus 1104 in DIFCO nutrient agar after 18 hr incubation period at 37 degree C; format: functional
Staphylococcus aureus [7] = assay: Minimum inhibitory concentration against Staphylococcus aureus res in DIFCO nutrient agar after 18 hr incubation period at 37 degree C; format: functional
Staphylococcus aureus [8] = assay: Minimum inhibitory concentration against Staph 25768 in DIFCO nutrient agar after 18 hr incubation period at 37 degree C; format: functional
[9] = Minimum inhibitory concentration against S. Innsbruck in DIFCO nutrient agar after 18 h incubation period at 37 degree C
Staphylococcus aureus [10] = assay: Minimum inhibitory concentration against Staphylococcus aureus in DIFCO nutrient agar after 18 hr incubation period at 37 degree C; format: functional

Chain of Beta-lactamase TEM (P62593 whole entry): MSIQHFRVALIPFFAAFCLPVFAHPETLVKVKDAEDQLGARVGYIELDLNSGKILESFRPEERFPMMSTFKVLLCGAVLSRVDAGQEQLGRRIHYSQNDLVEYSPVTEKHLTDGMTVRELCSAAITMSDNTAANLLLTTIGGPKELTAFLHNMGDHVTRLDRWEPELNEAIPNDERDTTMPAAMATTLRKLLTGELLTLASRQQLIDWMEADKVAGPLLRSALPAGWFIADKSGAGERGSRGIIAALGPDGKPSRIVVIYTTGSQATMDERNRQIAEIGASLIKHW
Chain of Beta-lactamase (P05364 whole entry): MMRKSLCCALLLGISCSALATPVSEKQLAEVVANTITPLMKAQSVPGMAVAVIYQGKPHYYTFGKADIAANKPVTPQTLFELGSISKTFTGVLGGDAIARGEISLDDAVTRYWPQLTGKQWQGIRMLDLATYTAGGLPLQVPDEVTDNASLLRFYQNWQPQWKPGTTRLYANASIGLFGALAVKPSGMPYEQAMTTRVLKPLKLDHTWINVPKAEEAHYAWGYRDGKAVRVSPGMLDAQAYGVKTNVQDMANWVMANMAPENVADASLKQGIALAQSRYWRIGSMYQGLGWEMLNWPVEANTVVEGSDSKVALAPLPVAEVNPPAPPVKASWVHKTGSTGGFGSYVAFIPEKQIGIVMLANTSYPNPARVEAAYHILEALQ

Row | SMILES | half-life [1] | IC50 (Beta-lactamase) | IC50 (Beta-lactamase TEM) | MIC (Enterococcus sp.) | MIC (Escherichia coli [2]) | MIC (Escherichia coli [3]) | MIC (Enterobacter cloacae) | MIC (Pseudomonas aeruginosa [4]) | MIC (Pseudomonas aeruginosa [5]) | MIC (Staphylococcus aureus [6]) | MIC (Staphylococcus aureus [7]) | MIC (Staphylococcus aureus [8]) | MIC [9] | IC50 (Beta-lactamase TEM; read-out: IC50) | MIC (Staphylococcus aureus [10])
1 | COC1=C(C(=O)[O-])N2C(=O)[C@H]([C@@H](C)O)[C@H]2C1.[K+] | 5.75 h | 510 nM | 0.00034 M l-1 | 50 µg/mL | 2 µg/mL | 1 µg/mL | 5 µg/mL | > 50 µg/mL | > 50 µg/mL | 1 µg/mL | 2 µg/mL | 5 µg/mL | 25 µg/mL | – | –
2 | COC1=C(C(=O)[O-])N2C(=O)[C@H]([C@@H](C)O)C2[C@H]1C.[K+] (some centres undefined) | 72 h | 2100 nM | – | > 50 µg/mL | 1 µg/mL | 0.5 µg/mL | 5 µg/mL | > 50 µg/mL | > 50 µg/mL | 25 µg/mL | 25 µg/mL | > 50 µg/mL | > 50 µg/mL | 130 nM | –
3 | COC1=C(C(=O)[O-])N2C(=O)[C@H]([C@@H](C)O)C2[C@@H]1C.[K+] (some centres undefined) | 3.25 h | 82 nM | – | > 50 µg/mL | 10 µg/mL | 5 µg/mL | 25 µg/mL | > 50 µg/mL | > 50 µg/mL | < 0.5 µg/mL | – | 5 µg/mL | > 50 µg/mL | 230 nM | 1 µg/mL
